From PubChem BioAssay (NCI)
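Protocol summary: plate cells (96-well), add compound at 5 concentrations, incubate 48 h, interpolate endpoints linearly. TGI: concentration producing complete growth inhibition.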

Tests used:
Experiment in all cases: NCI-60 cell line screen, 48 h
[1] = tested on: 786-0 renal
[2] = tested on: A498 renal
[3] = tested on: A549 NSCLC
[4] = tested on: ACHN renal
[5] = tested on: BT-549 breast
[6] = tested on: CAKI-1 renal
[7] = tested on: CCRF-CEM leukemia
[8] = tested on: COLO 205 colon
[9] = tested on: DU-145 prostate
[10] = tested on: EKVX NSCLC
[11] = tested on: HCC-2998 colon
[12] = tested on: HCT-116 colon
[13] = tested on: HCT-15 colon
[14] = tested on: HOP-62 NSCLC
[15] = tested on: HOP-92 NSCLC
[16] = tested on: HS 578T breast
[17] = tested on: HT29 colon
[18] = tested on: IGROV1 ovarian
[19] = tested on: K-562 leukemia
[20] = tested on: KM12 colon
[21] = tested on: LOX IMVI melanoma
[22] = tested on: M14 melanoma
[23] = tested on: MALME-3M melanoma
[24] = tested on: MCF7 breast
[25] = tested on: MDA-MB-231 breast
[26] = tested on: MDA-MB-435
[27] = tested on: MDA-N
[28] = tested on: MOLT-4 leukemia
[29] = tested on: NCI-H23 lung
[30] = tested on: NCI-H460 lung
[31] = tested on: NCI-H522 lung
[32] = tested on: NCI/ADR-RES ovarian
[33] = tested on: OVCAR-3 ovarian
[34] = tested on: OVCAR-4 ovarian
[35] = tested on: OVCAR-5 ovarian
[36] = tested on: OVCAR-8 ovarian
[37] = tested on: PC-3 prostate
[38] = tested on: RPMI-8226 leukemia
[39] = tested on: RXF 393 renal
[40] = tested on: SF-268 CNS
[41] = tested on: SF-295 CNS
[42] = tested on: SF-539 CNS
[43] = tested on: SK-MEL-2 melanoma
[44] = tested on: SK-MEL-28 melanoma
[45] = tested on: SK-MEL-5 melanoma
[46] = tested on: SK-OV-3 ovarian
[47] = tested on: SN12C renal
[48] = tested on: SNB-19 CNS
[49] = tested on: SNB-75 CNS
[50] = tested on: SR leukemia
[51] = tested on: T-47D breast
[52] = tested on: TK-10 renal
[53] = tested on: U251 CNS
[54] = tested on: UACC-257 melanoma
[55] = tested on: UACC-62 melanoma
[56] = tested on: UO-31 renal

Compound: C/C(=C\COc1cc(O)c2c(c1)C(=O)c1cc(C)cc(O)c1C2=O)CCC1OC1(C)C (stereo unspecified)
- TGI [1]: > 100 µM
- TGI [2]: > 100 µM
- TGI [3]: > 100 µM
- TGI [4]: > 100 µM
- TGI [5]: > 100 µM
- TGI [6]: 96.5 µM
- TGI [7]: > 100 µM
- TGI [8]: > 100 µM
- TGI [9]: > 100 µM
- TGI [10]: > 100 µM
- TGI [11]: > 100 µM
- TGI [12]: > 100 µM
- TGI [13]: > 100 µM
- TGI [14]: > 100 µM
- TGI [15]: > 100 µM
- TGI [16]: > 100 µM
- TGI [17]: > 100 µM
- TGI [18]: > 100 µM
- TGI [19]: > 100 µM
- TGI [20]: > 100 µM
- TGI [21]: > 100 µM
- TGI [22]: > 100 µM
- TGI [23]: > 100 µM
- TGI [24]: > 100 µM
- TGI [25]: > 100 µM
- TGI [26]: > 100 µM
- TGI [27]: > 100 µM
- TGI [28]: > 100 µM
- TGI [29]: > 100 µM
- TGI [30]: > 100 µM
- TGI [31]: > 100 µM
- TGI [32]: > 100 µM
- TGI [33]: > 100 µM
- TGI [34]: > 100 µM
- TGI [35]: > 100 µM
- TGI [36]: > 100 µM
- TGI [37]: > 100 µM
- TGI [38]: > 100 µM
- TGI [39]: 70.8 µM
- TGI [40]: > 100 µM
- TGI [41]: > 100 µM
- TGI [42]: > 100 µM
- TGI [43]: > 100 µM
- TGI [44]: > 100 µM
- TGI [45]: > 100 µM
- TGI [46]: > 100 µM
- TGI [47]: > 100 µM
- TGI [48]: > 100 µM
- TGI [49]: > 100 µM
- TGI [50]: > 100 µM
- TGI [51]: > 100 µM
- TGI [52]: > 100 µM
- TGI [53]: > 100 µM
- TGI [54]: > 100 µM
- TGI [55]: > 100 µM
- TGI [56]: > 100 µM
